Data on 1 molecule can be found in patent US6313090A, “Methods for treating parasitic infection using thiopeptides” (The United States of America as represented by the …, priority 2000, dated 2001).

For data set [1], the system named is P. falciparum total protein synthesis. The data set can be described thus: Assay of inhibition of protein synthesis, [3H]leucine incorporation. The format is cell-based. The procedure: Assay of Inhibition of Protein Synthesis. Assay for inhibition of protein synthesis was similar to above except the culture and drug dilutions were in RPMI-1640 without leucine (Select-Amine, Life Technologies) and the sera was extensively dialyzed as described (21). Also, the cultures were adjusted to 1% parasitemia prior to the experiment. Microtitre plates were set up with drug dilutions as described above except cultures were incubated with drug for only 4 hours. [3,4,5-^3 H]-Leucine (Moravek Biochemicals, 122 Ci/mmol, 0.5 mCi/ml, 100 μCi) was diluted to 4 ml in RPMI without leucine. The radiolabeled leucine (20 μl, […]) was added to each well and the plates were further incubated for four hours. The microtitre plates were processed as above to quantitate the incorporated radiolabel.
Assay of inhibition. The effect of thiostrepton on growth and protein synthesis of P. falciparum was compared to anisomycin, since the effect of both of these drugs is on protein synthesis. To assay the effect of thiostrepton and anisomycin on the growth of P. faciparum, inhibition of the uptake and incorporation of [^3 H]hypoxanthine was quantitated at serial dilutions of the drugs on an in vitro culture of P. falciparum. […] Inhibition of the incorporation of [^3 H]leucine was also tested at the same dilutions of the drugs. […]

A short description of data set [2]: Precipitation seen in culture medium of the growth assay. Format: physicochemical. The note with it: highest concentrations (final 0.2mM) in culture. The method, then:
Assay of Growth inhibition. Thiostrepton (1525 u/mg; Calbiochem) and anisomycin (Sigma) were dissolved at 100 mM in DMSO (Pierce). P. falciparum (strain 3D7) (44) was maintained in culture with human erythrocytes (5% hematocrit) in RPMI-1640 (Life Technologies) supplemented with HEPES and sodium bicarbonate and human sera (10%) under standard conditions (18,19). The growth inhibition assay was conducted as described (20). Briefly, the parasitemia was adjusted to 0.1% parasitemia, 2.5% hematocrit and 200 μl aliquots placed in wells of a microtitre dish. Serial dilutions of drugs were made in RPMI. Thiostrepton was diluted to 10 mM in DMSO before the serial dilutions in RPMI. Aliquots (20 μl) were added in triplicate to the cultures in the microtitre plate, mixing well. At the highest concentrations (final 0.2mM), thiostrepton precipitates. After incubation for 48 hours under standard conditions, [2,8-^3 H]-hypoxanthine Moravek Biochemicals, 12.5 Ci/mmol) in RPMI (20 μl, 0.05 mCi/ml) was added to each well. After incubation for a further 24 hours, the cultures were lysed and incorporated radioactivity was measured with an automated counter.

The next data set has as its system C. parvum. The data set can be described thus: In vivo testing, SCID mice with acute C. parvum infection. The arrangement: species or system Cryptospordium parvum. The method, then:
SCID mice (Taconic Farms, Germantown, N.Y.), preconditioned with monoclonal antibodies to interferon as described (41), were given an acute infection of C. parvum (10^7 oocysts given orally). A total of five mice in two groups were used. One group received 500 mg/kg/day (in two doses of 250 mg/kg) of thiostrepton six days post-infection and the other group received a placebo. Treatment lasted ten days and oocyst shedding was measured by counting the number of oocysts in 30 fields under high power microscopy of acid-fast stained fecal smears and calculating the mean for each group as described (41). […] Mucosal scores describe the extent of mucosal infection detected in formalin-fixedsections of tissue samples from various gut sites (pyloric region of stomach, liver, gallbladder, mid-small intestine, terminal ileum, cecum and colon) taken during necropsy. Scoring was as follows: 0 (no infection) to 5 (maximal infection) and was expressed as the combined score of the number of gut sites examined.

With `C=C(NC(=O)C(=C)NC(=O)c1csc(C2=N[C@@H]3c4csc(n4)[C@H]4NC(=O)c5csc(n5)[C@H]([C@](C)(O)[C@@H](C)O)NC(=O)[C@H]5CSC(=N5)/C(=C/C)NC(=O)[C@H]([C@@H](C)O)NC(=O)c5csc(n5)[C@]3(CC2)NC(=O)[C@H](C)NC(=O)C(=C)NC(=O)[C@H](C)NC(=O)[C@H]([C@@H](C)CC)N[C@@H]2C=Cc3c([C@H](C)O)cc(nc3[C@H]2O)C(=O)O[C@@H]4C)n1)C(N)=O` [Thiostrepton, thiostrepton], the “inhibition of total protein synthesis” value in data set [1] (at the IC50 for growth) was “only a negligible amount of inhibition”. For the same molecule, the “concentration required for almost complete inhibition of total protein synthesis” value in data set [1] (relative to the IC50 for growth) was “More than ten-fold higher concentrations than the IC50”. For the same molecule, the precipitation entry in data set [2] was “precipitates”. Besides, the Mucosal score in the data set with C. parvum (2 × 250 mg/kg, combined score of gut sites, 0 (no infection) to 5 (maximal infection) per site) came out at 9.8. In the data set with C. parvum (SCID mice, 500 mg/kg/day (two doses of 250 mg/kg), ten days, FIG. 1), the “oocyst shedding compared to placebo” value was “significantly reduced oocyst shedding”. The “Oocyst shedding, % Inhib” value in the data set with C. parvum (last day of 10 day treatment, 2 × 250 mg/kg) is reported as 78.9%. The “Oocyst shedding, Mean” value in the data set with C. parvum (last day of 10 day treatment, 2 × 250 mg/kg, oocysts in 30 fields of fecal smears) came out at 11.2.
